Where “and” joins values, the source holds several entries; their conditions need not be identical. Equal values may be shown once. Values belong to the molecule of their own block, whether it stands above or below them.
Tested on: 292921-168-R-J2-PDC complex spheroid viability
Assay: Anticancer human tumor 292921-168-R-J2-PDC patient-derived pancreatic carcinoma cell line growth inhibition
Conditions: for viability, T/C: stronger effect = lower value
Procedure, shortened: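 Drug combinations with the LSD1 inhibitor iadademstat tested on tumor cells co-cultured as spheroids with endothelial cells and mesenchymal stem cells. Concentrations descended in half-log increments from clinical Cmax or 10 microM.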

[1] = curve of first compound, second compound 0.1 µM
[2] = curve of first compound, second compound 0.316 µM
[3] = curve of first compound, second compound 1 µM
[4] = curve of first compound, second compound 3.16 µM
[5] = curve of first compound, second compound 10 µM
[6] = second compound 0.1 µM, first compound 0.00316 µM
[7] = second compound 0.1 µM, first compound 0.01 µM
[8] = second compound 0.1 µM, first compound 0.0316 µM
[9] = second compound 0.1 µM, first compound 0.1 µM
[10] = second compound 0.1 µM, first compound 0.316 µM
[11] = second compound 0.1 µM, first compound 1 µM
[12] = second compound 0.316 µM, first compound 0.00316 µM
[13] = second compound 0.316 µM, first compound 0.01 µM
[14] = second compound 0.316 µM, first compound 0.0316 µM
[15] = second compound 0.316 µM, first compound 0.1 µM
[16] = second compound 0.316 µM, first compound 0.316 µM
[17] = second compound 0.316 µM, first compound 1 µM
[18] = second compound 1 µM, first compound 0.00316 µM
[19] = second compound 1 µM, first compound 0.01 µM
[20] = second compound 1 µM, first compound 0.0316 µM
[21] = second compound 1 µM, first compound 0.1 µM
[22] = second compound 1 µM, first compound 0.316 µM
[23] = second compound 1 µM, first compound 1 µM
[24] = second compound 3.16 µM, first compound 0.00316 µM
[25] = second compound 3.16 µM, first compound 0.01 µM
[26] = second compound 3.16 µM, first compound 0.0316 µM
[27] = second compound 3.16 µM, first compound 0.1 µM
[28] = second compound 3.16 µM, first compound 0.316 µM
[29] = second compound 3.16 µM, first compound 1 µM
[30] = second compound 10 µM, first compound 0.00316 µM
[31] = second compound 10 µM, first compound 0.01 µM
[32] = second compound 10 µM, first compound 0.0316 µM
[33] = second compound 10 µM, first compound 0.1 µM
[34] = second compound 10 µM, first compound 0.316 µM
[35] = second compound 10 µM, first compound 1 µM
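Note: seven day compound exposure before luminescent viability read.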
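Throughout, for viability, T/C: 100% = DMSO vehicle control wells.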

SMILES: O=C(C=Cn1cnc(-c2cc(C(F)(F)F)cc(C(F)(F)F)c2)n1)NNc1cnccn1 + NC1CCC(NC2CC2c2ccccc2)CC1
IC50 [1]: 5.43 nM
IC50 [2]: 8.67 nM
IC50 [3]: 10.6 nM
IC50 [4]: 6.77 nM
IC50 [5]: 5.92 nM
viability, T/C [6]: 52.7%
viability, T/C [7]: 47.4%
viability, T/C [8]: 25.9%
viability, T/C [9]: 13.2%
viability, T/C [10]: 6.69%
viability, T/C [11]: 6.34%
viability, T/C [12]: 54.7%
viability, T/C [13]: 50.4%
viability, T/C [14]: 27%
viability, T/C [15]: 13.6%
viability, T/C [16]: 8.09%
viability, T/C [17]: 7.2%
viability, T/C [18]: 56.7%
viability, T/C [19]: 52.1%
viability, T/C [20]: 29%
viability, T/C [21]: 13.8%
viability, T/C [22]: 9.01%
viability, T/C [23]: 7.09%
viability, T/C [24]: 53%
viability, T/C [25]: 48.5%
viability, T/C [26]: 29.9%
viability, T/C [27]: 12.9%
viability, T/C [28]: 8.57%
viability, T/C [29]: 8.41%
viability, T/C [30]: 53.2%
viability, T/C [31]: 47.8%
viability, T/C [32]: 30.2%
viability, T/C [33]: 16.3%
viability, T/C [34]: 9.15%
viability, T/C [35]: 8.4%

SMILES: COc1ccc([C@@H](O)c2cc(-c3ncnc4cc(N5CCOCC5)ccc34)c(F)cc2Cl)nn1 + NC1CC1c1ccc(-c2cccc(O)c2)cc1
IC50 [1]: 403 nM
IC50 [2]: 270 nM
IC50 [3]: 158 nM
IC50 [4]: 131 nM
IC50 [5]: < 31.6 nM
viability, T/C [8]: 73.1%
viability, T/C [9]: 73.9%
viability, T/C [10]: 53.5%
viability, T/C [11]: 30.8%
viability, T/C (second compound 0.1 µM, first compound 3.16 µM): 20.9%
viability, T/C (second compound 0.1 µM, first compound 10 µM): 10.5%
viability, T/C [14]: 72.5%
viability, T/C [15]: 69.6%
viability, T/C [16]: 44.4%
viability, T/C [17]: 28.2%
viability, T/C (second compound 0.316 µM, first compound 3.16 µM): 18.2%
viability, T/C (second compound 0.316 µM, first compound 10 µM): 10.7%
viability, T/C [20]: 57.7%
viability, T/C [21]: 56.9%
viability, T/C [22]: 41.9%
viability, T/C [23]: 28.1%
viability, T/C (second compound 1 µM, first compound 3.16 µM): 18%
viability, T/C (second compound 1 µM, first compound 10 µM): 11.3%
viability, T/C [26]: 54.9%
viability, T/C [27]: 55.8%
viability, T/C [28]: 38.8%
viability, T/C [29]: 23.4%
viability, T/C (second compound 3.16 µM, first compound 3.16 µM): 16.8%
viability, T/C (second compound 3.16 µM, first compound 10 µM): 11.5%
viability, T/C [32]: 44.6%
viability, T/C [33]: 43.3%
viability, T/C [34]: 30%
viability, T/C [35]: 20.8%
viability, T/C (second compound 10 µM, first compound 3.16 µM): 15.5%
viability, T/C (second compound 10 µM, first compound 10 µM): 12.2%

SMILES: COc1cc(Nc2ncc3c(n2)-c2ccc(Cl)cc2C(c2c(F)cccc2OC)=NC3)ccc1C(=O)O + NC1CCC(NC2CC2c2ccccc2)CC1
IC50 [1]: < 3.16 nM
IC50 [2]: < 3.16 nM
IC50 [3]: < 3.16 nM
IC50 [4]: < 3.16 nM
IC50 [5]: < 3.16 nM
viability, T/C [6]: 32.5%
viability, T/C [7]: 37.7%
viability, T/C [8]: 33.5%
viability, T/C [9]: 28.6%
viability, T/C [10]: 22.4%
viability, T/C [11]: 16.5%
viability, T/C [12]: 31.7%
viability, T/C [13]: 39.2%
viability, T/C [14]: 32.5%
viability, T/C [15]: 24.6%
viability, T/C [16]: 22.5%
viability, T/C [17]: 14.3%
viability, T/C [18]: 35.6%
viability, T/C [19]: 34.7%
viability, T/C [20]: 34.8%
viability, T/C [21]: 29.3%
viability, T/C [22]: 18.3%
viability, T/C [23]: 14.3%
viability, T/C [24]: 30.2%
viability, T/C [25]: 32.6%
viability, T/C [26]: 29.4%
viability, T/C [27]: 25.9%
viability, T/C [28]: 21.5%
viability, T/C [29]: 14.9%
viability, T/C [30]: 28.3%
viability, T/C [31]: 36.8%
viability, T/C [32]: 30.9%
viability, T/C [33]: 25.2%
viability, T/C [34]: 19.9%
viability, T/C [35]: 15.3%

IC50 (curve of compound): > 10000 nM
SMILES: CC(C)c1c(-c2ccccc2)nc2c(C#N)c[nH]n2c1=O
viability, T/C (compound 0.0316 µM): 100% and 101%
viability, T/C (compound 0.1 µM): 97.6% and 101%
viability, T/C (compound 0.316 µM): 102% and 93.6%
viability, T/C (compound 1 µM): 106% and 98.2%
viability, T/C (compound 3.16 µM): 102% and 105%
viability, T/C (compound 10 µM): 65.2% and 70.4%

SMILES: Nc1ccn(C2OC(CO)C(O)C2(F)F)c(=O)n1 (configuration not stated) + NC1CC1c1ccc(-c2cccc(O)c2)cc1
IC50 [1]: < 0.949 nM
IC50 [2]: < 0.949 nM
IC50 [3]: < 0.949 nM
IC50 [4]: < 0.949 nM
IC50 [5]: < 0.949 nM
viability, T/C (second compound 0.1 µM, first compound 0.000949 µM): 29.5%
viability, T/C (second compound 0.1 µM, first compound 0.003 µM): 10.6%
viability, T/C (second compound 0.1 µM, first compound 0.00949 µM): 6.54%
viability, T/C (second compound 0.1 µM, first compound 0.03 µM): 5.59%
viability, T/C (second compound 0.1 µM, first compound 0.0949 µM): 7.33%
viability, T/C (second compound 0.1 µM, first compound 0.3 µM): 5.81%
viability, T/C (second compound 0.316 µM, first compound 0.000949 µM): 30.2%
viability, T/C (second compound 0.316 µM, first compound 0.003 µM): 9.61%
viability, T/C (second compound 0.316 µM, first compound 0.00949 µM): 4.8%
viability, T/C (second compound 0.316 µM, first compound 0.03 µM): 5.72%
viability, T/C (second compound 0.316 µM, first compound 0.0949 µM): 5.73%
viability, T/C (second compound 0.316 µM, first compound 0.3 µM): 5.51%
viability, T/C (second compound 1 µM, first compound 0.000949 µM): 27%
viability, T/C (second compound 1 µM, first compound 0.003 µM): 8.35%
viability, T/C (second compound 1 µM, first compound 0.00949 µM): 5.25%
viability, T/C (second compound 1 µM, first compound 0.03 µM): 5.86%
viability, T/C (second compound 1 µM, first compound 0.0949 µM): 5.98%
viability, T/C (second compound 1 µM, first compound 0.3 µM): 6.01%
viability, T/C (second compound 3.16 µM, first compound 0.000949 µM): 27.8%
viability, T/C (second compound 3.16 µM, first compound 0.003 µM): 10%
viability, T/C (second compound 3.16 µM, first compound 0.00949 µM): 5.33%
viability, T/C (second compound 3.16 µM, first compound 0.03 µM): 6.76%
viability, T/C (second compound 3.16 µM, first compound 0.0949 µM): 5.59%
viability, T/C (second compound 3.16 µM, first compound 0.3 µM): 6.51%
viability, T/C (second compound 10 µM, first compound 0.000949 µM): 28.4%
viability, T/C (second compound 10 µM, first compound 0.003 µM): 11.2%
viability, T/C (second compound 10 µM, first compound 0.00949 µM): 7.89%
viability, T/C (second compound 10 µM, first compound 0.03 µM): 7.46%
viability, T/C (second compound 10 µM, first compound 0.0949 µM): 7.74%
viability, T/C (second compound 10 µM, first compound 0.3 µM): 7.58%

SMILES: CC(C)CC(NC(=O)CNC(=O)c1cc(Cl)ccc1Cl)B1OC(=O)CC(CC(=O)O)(C(=O)O)O1 (configuration not stated) + NC1CCC(NC2CC2c2ccccc2)CC1
IC50 [1]: 4.8 nM
IC50 [2]: 4.28 nM
IC50 [3]: 4.66 nM
IC50 [4]: 4.25 nM
IC50 [5]: 4.24 nM
viability, T/C (second compound 0.1 µM, first compound 0.000316 µM): 75.8%
viability, T/C (second compound 0.1 µM, first compound 0.001 µM): 69.4%
viability, T/C [6]: 70.9%
viability, T/C [7]: 13.4%
viability, T/C [8]: 2.33%
viability, T/C [9]: 0.79%
viability, T/C (second compound 0.316 µM, first compound 0.000316 µM): 60.9%
viability, T/C (second compound 0.316 µM, first compound 0.001 µM): 70.9%
viability, T/C [12]: 61.9%
viability, T/C [13]: 16.1%
viability, T/C [14]: 2.1%
viability, T/C [15]: 0.69%
viability, T/C (second compound 1 µM, first compound 0.000316 µM): 63.8%
viability, T/C (second compound 1 µM, first compound 0.001 µM): 73%
viability, T/C [18]: 66.7%
viability, T/C [19]: 17.2%
viability, T/C [20]: 2.39%
viability, T/C [21]: 0.76%
viability, T/C (second compound 3.16 µM, first compound 0.000316 µM): 54.9%
viability, T/C (second compound 3.16 µM, first compound 0.001 µM): 67%
viability, T/C [24]: 63.5%
viability, T/C [25]: 15.9%
viability, T/C [26]: 1.7%
viability, T/C [27]: 0.63%
viability, T/C (second compound 10 µM, first compound 0.000316 µM): 58.6%
viability, T/C (second compound 10 µM, first compound 0.001 µM): 69%
viability, T/C [30]: 63.1%
viability, T/C [31]: 11.7%
viability, T/C [32]: 1.43%
viability, T/C [33]: 0.5%
